From patent US20090149429A1, “ANTIVIRAL COMPOUNDS” (Myriad Genetics, Incorporated, priority 2005, published 2009)

Test system: mock-infected MT-4 cells
Assay: Compound toxicity in mock-infected MT-4 cells (WST-1 assay)
Assay type: cell-based
Settings: four days incubation, read-out: TC50 (concentration of compound that results in death of 50% of the host cells)
Protocol: The HTLV-1 transformed T cell line, MT-4, is highly susceptible to HIV-1 infection. Anti-HIV-1 agents were evaluated in this target cell line by protection from the HIV-induced cytopathic effect. In this assay, viability of both HIV-1 and mock-infected cells was assessed in a […] assay that monitors the ability of metabolically-active cells to reduce the tetrazolium salt WST-1. Cytoprotection by antiviral compounds is indicated by the positive readout of increased WST-1 cleavage.
Briefly, exponentially growing MT-4 cells were mock-infected or batch-infected with the HIV-1 laboratory strain, NL4-3, at a multiplicity of infection of 0.0005. Following a two hour infection, the cells were washed to remove unbound virus and plated in the presence of increasing concentrations of compound. After four days incubation, cytoprotection in the infected cells and compound toxicity in mock-infected cells were analyzed using the WST-1 assay.

SMILES | CC50 [µM]
C=C(C)[C@@H]1CC[C@]2(C(=O)NCc3ccccc3C(=O)O)CC[C@]3(C)[C@H](CC[C@@H]4[C@@]5(C)CC[C@H](OC(=O)CC(C)(C)C(=O)O)C(C)(C)[C@@H]5CC[C@]43C)[C@@H]12 [Compound 39] | ~6.3
C=C(C)[C@@H]1CC[C@]2(C(=O)NCc3ccc(C(=O)O)cc3)CC[C@]3(C)[C@H](CC[C@@H]4[C@@]5(C)CC[C@H](OC(=O)CC(C)(C)C(=O)O)C(C)(C)[C@@H]5CC[C@]43C)[C@@H]12 [Compound 37] | ~7.7
